The test system of one experiment is HCT116 MTAP+/+. The experiment in a line: Inhibition of cellular proliferation (Cell Titer Glo), HCT116 MTAP+/+. The format is cell-based. The note with it: Homo sapiens, HCT-116, 96 h, 4 days, read-out: 4 Day Relative Growth Inhibition (MTAP +/+). On the procedure: (§1) Test compound impact on cancer cell growth was assessed by treating cancer cells with compound for 4 days and then measuring proliferation using an ATP-based cell proliferation readout (Cell Titer Glo, Promega Corporation).
(§2) In a typical assay an isogenic pair of HCT116 human colon carcinoma cell lines which vary only in MTAP deletion status (HCT116 MTAP+/+ and HCT116 MTAP−/−) were plated in 96-well dishes at appropriate cell density. Following 24 hours, cells were then treated with the candidate MAT2A inhibitor. Prior to addition to cells, the compound was first serially diluted in 100% DMSO, typically as a 3-fold serial dilution starting at 500× top dose with 10 dose points including DMSO only control. Compound was then transferred to a working stock plate in cell culture media by adding 5 μL of compound in DMSO to 495 μL of cell culture media. This working stock was then added to cells via a further 5-fold dilution, by adding 25 μL of working stock to 100 μL of cells in culture media. Following compound addition, cells were incubated at 37° C./5% CO2 for 4 days.
(§3) To measure inhibition of cellular proliferation, cells were allowed to equilibrate to room temperature for 30 minutes, and were then treated with 125 μL of Cell Titer Glo reagent. The plate was then covered with aluminum foil and shaken for 15 minutes to ensure complete mixing and full cell lysis. Luminescent signal was then measured using a plate-based luminometer Veritas version 1.9.2 using ATP standard curve to confirm assay reproducibility from run to run. This luminescence measure was converted to a proliferation index by subtracting from each data point the ATP luminescence signal measured from a bank (no cells) well and dividing by the ATP luminescence signal measured in 0.2% DMSO control well adjusted for signal in blank well. Compound activity was then represented as a percentage change in proliferation relative to a within-plate DMSO control against log 10 of compound concentration in molar (M) units.
Background: ATP-based viability assays read luminescence as a measure of living cells.

Another experiment deals with HCT116 MTAP−/−. In words: Inhibition of cellular proliferation (Cell Titer Glo), HCT116 MTAP-/-. Conditions: Homo sapiens, HCT-116, 96 h, 4 days, read-out: 4 Day Relative Growth Inhibition (MTAP −/−). In kind it is cell-based. On the procedure: as §1, §2, §3
The test system of experiment [1] is MAT2A activity (SAM) in HCT116 cells with deleted MTAP gene. In words: Cellular assay of target engagement (SAM) by LC-MS/MS. In kind it is cell-based. Conditions: Homo sapiens, HCT-116; HCT116 MTAP −/−, 72 hrs; read-out: Cell 72 h SAM Inhibition (MTAP −/−). The procedure:
Measurement of MAT2A activity in cells was made by direct quantitation of the abundance of the product of its enzymatic activity, SAM. Cancer cells were treated with candidate MAT2A inhibitors for a suitable incubation period, and the cells were then lysed using a reagent which quenched any further enzyme activity. Soluble metabolites including SAM were collected and SAM itself was directly measured from the lysate using quantitative LC-MS/MS.
A typical assay was performed using an HCT116 human colon carcinoma cell line which was genetically engineered to delete the MTAP gene (commercially available from Horizon Discovery). This cell line was utilized because it was determined that loss of the MTAP gene predicts sensitivity to MAT2A inhibitors. Cells were plated in 96-well dishes at appropriate cell density. Following 24 hours, cells were then treated with the candidate MAT2A inhibitor. Prior to addition to cells, the compound was first serially diluted in 100% DMSO, typically as a 3-fold serial dilution starting at 500× top dose with 10 dose points including DMSO only control. Compound was then transferred to a working stock plate in cell culture media by adding 5 μL of compound in DMSO to 495 μL of cell culture media. This working stock was then added to cells via a further 5-fold dilution, by adding 25 μL of working stock to 100 μL of cells in culture media. Following compound addition, cells were incubated at 37° C./5% CO2 for 72 hrs.
To quantitate SAM levels following compound treatment, cells were gently washed once in ammonium carbonate buffer (75 mM at pH 7.4), placed on dry ice, and lysed with metabolite extraction buffer (80% cold methanol and 20% water (v/v) with acetic acid at 1M final concentration with 200 ng/mL deuterated d3-SAM as internal control). Following centrifugation at 4° C. at 3,200 rpm for 30 minutes, the supernatant was collected and stored at −80° C. until analysis by Liquid Chromatography with tandem Mass Spectrometry (LC-MS/MS). LC-MS/MS analysis was performed using an API6500 Mass Spectrometer (Sciex, Framingham, MA, USA) operating in positive ion spray mode and equipped with a Waters UPLC Acquity (Waters, Milford, MA, USA) BEH Amide column. Multiple Reaction Monitoring data was acquired for SAM and the d3-SAM standard, using a mass transition pair at m/z 399.2→250.1 and 402.2→250.1, respectively. In a typical LC-MS/MS analysis, the initial flow rate was 0.5 ml/min of 25% mobile phase A (acetonitrile and water at 5:95 (v/v) with 1% formic acid and 10 mM ammonium acetate) and 75% mobile phase B (acetonitrile and water at 95:5 (v/v) with 1% formic acid and 10 mM ammonium acetate), 0.2-0.5 minutes with 75%-35% mobile phase B, 25%-65% mobile phase A, at 0.5 min 65% mobile phase A and 35% mobile phase B, 1.0-1.1 minutes with 35%-75% mobile phase B, 65%-25% mobile phase A, at 1.1 min 25% mobile phase A and 75% mobile phase B with a total run time of 1.5 minutes.

Another experiment concerns the target T1, MAT2A homodimer (Homo sapiens, UniProt P31153).
T1 construct: inferred from Ni sepharose purification and imidazole elution; made in house; host or cells: SF9 insect cells, recombinant baculovirus (Bac to Bac, pFASTBAC1)
In words: MAT2A biochemical assay (phosphate release, PiColorLock Gold). The note with it: recombinant MAT2A homodimer, 60 min pre-incubation, 25° C.; read-out: Enzyme Inhibition. The procedure:
Mat2A protein was expressed by recombinant baculovirus in SF9 infected cells using the Bac to Bac system cloned into the pFASTBAC1 vector (Invitrogen, Carlsbad, CA). Recombinant MAT2A was isolated from the cell lysate of 150 g of infected cells using HP Ni sepharose column chromatography. Recombinant MAT2A homodimer was eluted with 250 and 500 mM imidazole, and fractions containing MAT2A were identified by sodium dodecyl sulfate polyacrylamide gel electrophoresis and pooled.
For determination of the inhibitory potency of compounds against the MAT2A homodimer, protein was diluted to 4 μg/mL in assay buffer (50 mM Tris, pH 8.0, 50 mM KCl, 15 mM MgCl2, 0.3 mM EDTA, 0.005% [w/v] bovine serum albumin [BSA]). Test compound was prepared in 100% dimethyl sulfoxide (DMSO) at 50× the desired final concentration. A 1 μL volume of compound dilution was added to 40 μL of enzyme dilution and the mixture was allowed to equilibrate for 60 minutes at 25° C. The enzymatic assay was initiated by the addition of 10 μL of substrate mix (500 μM ATP, pH 7.0, 400 μM L-methionine in 1× assay buffer), and the mixture was incubated for a further 60 minutes at 25° C. The reaction was halted and the liberated phosphate released by the enzyme in stoichiometric amounts by the production of S-adenosyl methionine (SAM) was measured using the PiColorLock Gold kit (Innova Biosciences, UK). Absolute product amounts were determined by comparison to a standard curve of potassium phosphate buffer, pH 8.0.

T1 sequence (P31153 whole entry): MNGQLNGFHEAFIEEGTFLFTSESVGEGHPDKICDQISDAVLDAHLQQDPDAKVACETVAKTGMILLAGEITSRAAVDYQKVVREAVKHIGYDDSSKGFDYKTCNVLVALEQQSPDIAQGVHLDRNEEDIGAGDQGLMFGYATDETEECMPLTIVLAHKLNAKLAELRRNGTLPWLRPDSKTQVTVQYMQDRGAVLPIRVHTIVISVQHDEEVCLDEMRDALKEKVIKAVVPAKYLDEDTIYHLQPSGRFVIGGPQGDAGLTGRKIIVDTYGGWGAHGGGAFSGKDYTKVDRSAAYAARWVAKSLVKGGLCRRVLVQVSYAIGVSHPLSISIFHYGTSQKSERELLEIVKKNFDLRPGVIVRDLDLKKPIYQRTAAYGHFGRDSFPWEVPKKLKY

Regarding `CNC(=O)c1ccc(-n2nc3ccc(OCC(F)F)nc3c(-c3ccc(OC(F)F)cc3)c2=O)cc1` [Example 189], the IC50 with HCT116 MTAP+/+ is not below 1000 nM; in the experiment on HCT116 MTAP−/− it was 100 to 1000 nM; in experiment [1], 100 to 1000 nM; at MAT2A homodimer, less than 100 nM.

Consider `Cn1cc2cc(-n3nc4ccc(NCC(F)F)nc4c(-c4ccc(C(F)F)nc4)c3=O)ccc2n1` [Example 319], for which the IC50 in the experiment with HCT116 MTAP+/+ was not below 1000 nM; in the experiment on HCT116 MTAP−/−, less than 100 nM; in experiment [1], less than 100 nM; on MAT2A homodimer, less than 100 nM.

Consider `COc1ccc(-c2c(=O)n(-c3ccc4nn(C)cc4c3)nc3ccc(NC4CC4)nc23)cn1` [Example 308], for which, on MAT2A homodimer, the IC50 was less than 100 nM.

Turning to `[2H]C([2H])([2H])C([2H])([2H])Oc1ccc2nn(-c3ccc4nn(C)cc4c3)c(=O)c(-c3ccc(OC(F)F)cc3)c2n1` [Example 161], the IC50 in the experiment with HCT116 MTAP+/+ was not below 1000 nM; with HCT116 MTAP−/−, less than 100 nM; in experiment [1], less than 100 nM; on MAT2A homodimer, less than 100 nM.

`CCNc1ccc2nn(-c3ccc4nn(C)cc4c3)c(=O)c(-c3ccc(C4CC4)cc3)c2n1` [Example 312]: the IC50 at MAT2A homodimer was less than 100 nM.

As to `Cn1cc2cc(-n3nc4ccc(OCC5CC5(F)F)nc4c(-c4ccc(C5CC5)nc4)c3=O)ccc2n1` (stereo not shown) [Example 314], at MAT2A homodimer, the IC50 was less than 100 nM.

For `CCNc1ccc2nn(-c3ccc(=O)n(C)c3)c(=O)c(-c3ccc(C(F)F)nc3)c2n1` [Example 326], the IC50 on MAT2A homodimer is less than 100 nM.

For the compound `[2H]C([2H])([2H])c1ccc(-c2c(=O)n(-c3ccc4nn(C)cc4c3)nc3ccc(NCC)nc23)cn1` [Example 320], the IC50 on MAT2A homodimer is less than 100 nM.

`O=c1c(-c2ccc(OC(F)F)cc2)c2nc(OCC(F)F)ccc2nn1-c1cncs1` [Example 186]: the IC50 at MAT2A homodimer was 100 to 1000 nM.

Take `CCNc1ccc2nn(-c3ccc4nn(C)cc4c3)c(=O)c(-c3ccc4[nH]cc(C#N)c4c3)c2n1` [Example 332, 5-(6-(ethylamino)-2-(2-methyl-2H-indazol-5-yl)-3-oxo-2,3-dihydropyrido[3,2-c]pyridazin-4-yl)-1H-indole-3-carbonitrile]: the IC50 on MAT2A homodimer is less than 100 nM.

Take `Cn1cc(-n2nc3ccc(NCC(F)(F)F)nc3c(-c3ccc(C(F)F)nc3)c2=O)ccc1=O` [Example 329]: the IC50 at MAT2A homodimer fell in the range of 100 to 1000 nM.

Turning to `[2H]C([2H])([2H])Oc1ccc(-n2nc3ccc(NCC(F)(F)F)nc3c(-c3ccc(C(F)F)nc3)c2=O)cc1` [Example 322, 4-(6-(difluoromethyl)pyridin-3-yl)-2-(4-(methoxy-d3)phenyl)-6-((2,2,2-trifluoroethyl)amino)pyrido[3,2-c]pyridazin-3(2H)-one], the IC50 on MAT2A homodimer was less than 100 nM.

For `N#Cc1ccc(-n2nc3ccc(OCC(F)F)nc3c(-c3ccc(OC(F)F)cc3)c2=O)cc1` [Example 181], at MAT2A homodimer, the IC50 lay in the range of 1000 to 10000 nM.

With `O=C1CCC(n2nc3ccc(OCC(F)F)nc3c(-c3ccc(OC(F)F)cc3)c2=O)CC1` [Example 216, 6-(2,2-difluoroethoxy)-4-(4-(difluoromethoxy)phenyl)-2-(4-oxocyclohexyl)pyrido[3,2-c]pyridazin-3(2H)-one], the IC50 on MAT2A homodimer fell in the range of 100 to 1000 nM.

`COc1ccc(-n2nc3ccc(OCC(F)(F)F)nc3c(-c3ccc(Cl)cc3)c2=O)cc1` [Example 118]: at MAT2A homodimer, the IC50 is 100 to 1000 nM.

In the case of `O=c1c(-c2ccc(OC(F)F)cc2)c2nc(OCC(F)F)ccc2nn1-c1ccc(Cl)cc1` [Example 190], the IC50 on MAT2A homodimer fell in the range of 1000 to 10000 nM.

With `Cn1cc2cc(-n3nc4ccc(N5CCC5)nc4c(-c4ccc(OC(F)F)cc4)c3=O)ccc2n1` [Example 164], the IC50 on MAT2A homodimer lay in the range of 100 to 1000 nM.

For `CN(C)c1ccc2nn(-c3ccc4nn(C)c(N(C)C)c4c3)c(=O)c(-c3ccc(OC(F)F)cc3)c2n1` [Example 204, 4-(4-(difluoromethoxy)phenyl)-6-(dimethylamino)-2-(3-(dimethylamino)-2-methyl-2H-indazol-5-yl)pyrido[3,2-c]pyridazin-3(2H)-one], at MAT2A homodimer, the IC50 was less than 100 nM.

Take `CNc1ccc(-n2nc3ccc(OCC(F)F)nc3c(-c3ccc(OC(F)F)cc3)c2=O)cc1` [Example 185]: at MAT2A homodimer, the IC50 lay within 100 to 1000 nM.

Turning to `Cn1cc2cc(-n3nc4ccc(OCC(F)F)nc4c(C#C[Si](C)(C)C)c3=O)ccc2n1` [Example 213, 6-(2,2-difluoroethoxy)-2-(2-methyl-2H-indazol-5-yl)-4-((trimethylsilyl)ethynyl)pyrido[3,2-c]pyridazin-3(2H)-one], the IC50 with HCT116 MTAP+/+ is not below 1000 nM; in the experiment on HCT116 MTAP−/−, not below 1000 nM; at MAT2A homodimer, 100 to 1000 nM.

Turning to `[2H]C([2H])([2H])C([2H])([2H])Nc1ccc2nn(-c3ccc4nn(C)cc4c3)c(=O)c(-c3ccc(C(F)F)nc3)c2n1` [Example 324], the IC50 at MAT2A homodimer is less than 100 nM.

For `[2H]C([2H])([2H])n1cc2cc(-n3nc4ccc(NCC)nc4c(-c4ccc(C)nc4)c3=O)ccc2n1` [Example 330], on MAT2A homodimer, the IC50 was less than 100 nM.

`Cn1cc(-n2nc3ccc(OCC(F)F)nc3c(-c3ccc(C(F)F)nc3)c2=O)ccc1=O` [Example 328]: the IC50 on MAT2A homodimer is 100 to 1000 nM.

For the compound `CCNc1ccc2nn(-c3ccc4ncsc4c3)c(=O)c(-c3ccc(C4CC4)cc3)c2n1` [Example 311], the IC50 at MAT2A homodimer is less than 100 nM.

On to `[2H]C([2H])([2H])n1cc2cc(-n3nc4ccc(NC([2H])([2H])C([2H])([2H])[2H])nc4c(-c4ccc(C)nc4)c3=O)ccc2n1` [Example 325], for which the IC50 at MAT2A homodimer is less than 100 nM.

For `Cc1ccc(-c2c(=O)n(-c3ccc4nn(C)cc4c3)nc3ccc(NC4CC4)nc23)cn1` [Example 306], the IC50 on MAT2A homodimer was less than 100 nM.

Values taken from patent publication US12077534B2, “Aza-heterobicyclic inhibitors of MAT2A and methods of use for treating cancer” (Les Laboratoires Servier SAS, priority 2018, dated 2024).
